Assay results as given in article PMC5343580, “Antimicrobial peptide cWFW kills by combining lipid phase separation with autolysis” (Scientific Reports, 2017).
In brackets after ≈: the same amount, converted by molar mass. Peptide text beside a SMILES is read from it.

Key:
[1] = system: B. subtilis 168/DSM402; assay type: cell-based, Bacillus subtilis
Description: (§1) B. subtilis 168/DSM402 was grown in chemically defined Belitzky minimal medium (BMM)[61]. Cultures were incubated at 37 °C under steady agitation. Minimal inhibitory concentrations (MIC) were determined as described previously. In growth experiments, exponentially growing cultures were exposed to a concentration range of peptide (Supplementary Figure 1)[62]. For physiological stress experiments, concentrations were chosen that led to 50% reduction of the growth rate. For proteomic profiling, as well as for all follow up experiments performed under the same growth conditions, 8 μM cWFW were used.

[2] = system: B. subtilis 168/DSM 402; experiment: Cytosolic proteome response profile (radioactive pulse-labelling, 2D-PAGE); assay type: cell-based, Bacillus subtilis; conditions: 8 μM cWFW, BMM
Description: To identify which cellular processes are disturbed by cWFW, we performed proteomic profiling of the Gram-positive model organism B. subtilis (Fig. 1). This technique combines radioactive pulse-labeling of newly synthesised proteins with two-dimensional SDS PAGE, thus providing insight into the acute antibiotic stress response.
as §1
Radioactive labelling of newly synthesised proteins and subsequent separation of the cytosolic proteome by two-dimensional polyacrylamide gel electrophoresis (2D-PAGE) was performed as previously described. Analytical gel images were analysed as described by Raatschen & Bandow[63] using Decodon Delta 2D 4.1 image analysis software. […] Protein spots were identified by MALDI-ToF/ToF or nanoUPLC-ESI-MS/MS using a Synapt G2-S HDMS mass spectrometer equipped with a lock spray source for electrospray ionisation and a ToF detector (Waters) as previously reported (Supplementary Tables 2 and 3)[62].

[3] = system: B. subtilis 168/DSM 402; experiment: Ion analysis (ICP-OES); assay type: cell-based, Bacillus subtilis; conditions: 15 min incubation with 8 μM, BMM, three independent measurements
Description: Only metal-free plastic ware and ultrapure water (Bernd Kraft) were used. All centrifugation steps were reduced to 2 min to reduce sample handling time. Cultures were adjusted to OD500 = 0.4 prior to antibiotic exposure to ensure equal cell count in each sample. Samples were prepared as described by Wenzel et al.[13]. Briefly, B. subtilis 168/DSM402 was grown in BMM until early exponential growth phase. For determination of ion concentrations, subcultures were incubated with 8 μM cWFW for 15 min, followed by cell harvest by centrifugation, washed twice in TE buffer (100 mM Tris-HCl, 1 mM EDTA, pH 7.5) and once in the same buffer without EDTA. The obtained cell pellets were digested in 65% nitric acid (Bernd Kraft) at 80 °C for 16 h. Prior to element analysis, samples were diluted with ultrapure water to a final nitric acid concentration of 10%. Element concentrations were determined by inductively-coupled plasma atomic emission spectroscopy using an iCAP* 6300 Duo View ICP Spectrometer (Thermo Fisher Scientific) as described before. […] Element concentrations were converted into intracellular ion concentrations based on the B. subtilis cellular volume, which was taken as 3 × 10^–9 μl based on average rod size determined by cryo-electron microscopy images by Matias and Beveridge[64][65].

[4] = system: B. subtilis 168; experiment: ATP measurement (luciferase-based luminescence); assay type: cell-based, Bacillus subtilis; conditions: 20 min incubation with 4, 8, and 12 μM; p ≥ 0.05; three independent replicates
Description: For the determination of cellular ATP levels samples were incubated with increasing concentration of cWFW for 20 min, followed by flash-freeze in liquid N2 in order to stop metabolism. Cell lysis and measurement of cell ATP levels were carried out using ATP bioluminescence Assay Kit HSII (Roche Applied Science) following manufacturer’s instructions using a BMG Fluostar Optima luminometer. The measured luminescence was calibrated with a serial dilution of ATP and triplicate samples were equalised against the optical density of the corresponding cell suspensions.

[5] = system: B. subtilis 168; experiment: Membrane fluidity in cells (laurdan GP); assay type: cell-based, Bacillus subtilis
From the text: Membrane fluidity was investigated with the small hydrophobic fluorescent dye laurdan, which integrates into cellular membranes and detects changes related to the lipid packing of the surrounding bilayer. The resulting changes in the fluorescence emission spectrum can be detected either spectroscopically or with fluorescence microscopy. A mathematical quantification of the emission shift is achieved by calculation of the laurdan GP (generalised polarisation) with GP = (I435 − I490)⁄(I435 + I490).
B. subtilis 168 cells were grown to OD600 ~ 0.5 in LB/0.1% glucose and incubated with 10 μM laurdan for 5 min, shaking in the dark. […] The supernatant removed from the cells after the last washing step served as background for laurdan fluorescence not associated with cells. […] All samples were shaken briefly before fluorescence detection at 435 ± 5 nm and 490 ± 5 nm (upon excitation at 350 ± 10 nm) on a plate reader (Fluostar Optima, BMG Labtech). Laurdan fluorescence was monitored for at least 20 min. […] Laurdan fluorescence in liposomes was recorded using an LS 50B spectrofluorometer (Perkin-Elmer Corp., Germany). […] Laurdan fluorescence was detected separately at 435 and 500 nm, respectively. The average of three measurements for each preparation was calculated to determine corresponding laurdan GP values. […]

[6] = system: B. subtilis 168; experiment: Membrane potential measurement with DiSC3(5); assay type: cell-based, Bacillus subtilis
Description: Peptide-induced changes in membrane potential were measured using the voltage-sensitive fluorescent dye DiSC3(5). In aqueous solution DiSC3(5) emits strong fluorescence which is quenched upon accumulation in polarised cells. Upon depolarisation, DiSC3(5) is released from the cell resulting in an increased fluorescence due to de-quenching. B. subtilis 168 was grown at 37 °C to mid-log phase and diluted in LB medium to OD600 0.2. After centrifugation for 1 min at 16,500 rpm, the supernatant was removed and cells carefully resuspended in 1 ml fresh pre-warmed LB containing 0.1 mg/ml BSA. Subsequently, 140 μl aliquots of the cell suspension were transferred into a 96 well microtiter plate and allowed to settle. 10 μl of 15 μM DiSC3(5) in LB/15% DMSO were added to the wells to give a final DiSC3(5) concentration of 1 μM. Cellular accumulation (quenching) of DiSC3(5) was monitored until the signal had reached stable fluorescence levels. The peptides were added at desired concentrations at 5 μl/well, and the resulting changes in DiSC3(5) fluorescence were analysed for at least 20 min using a Fluostar Optima, BMG Labtech. Solutions, plates and instruments were warmed to 37 °C prior to use.

[7] = system: B. subtilis SDB206; assay type: cell-based, Bacillus subtilis; conditions: ywiE::neo clsB::spc clsA::ery (CL-deficient), determined in LB
Description: (§2) Cells were inoculated from an overnight culture 1:100 and grown to mid-log phase (OD600 = 0.2–0.4). Unless stated otherwise, all experiments were carried out in LB medium at 37 °C. Cell numbers were determined using a Petroff-Hausser counting chamber: OD600 = 1 corresponds to 8.8 × 10^7 CFU/ml B. subtilis. Further information on strains, conditions of gene induction, and minimal inhibitory concentration are listed in Supplementary Table 4.
(§3) The minimal inhibitory concentration (MIC), which is defined as the lowest concentration able to inhibit growth of a microorganism in vitro[59], was analysed as described before. Briefly, bacteria were grown to mid-log phase and diluted in growth medium to give a final cell number of 5 × 10^5 cells/well in 96 well microtiter plates. A microdilution technique was applied where small volumes of peptide solutions were added in a serial dilution ranging from 100 to 0.05 μM. Cells were cultivated for 18 hours, 37 °C, 180 rpm, followed by photometrical detection of the optical density using a microplate reader (Tecan). Peptide concentrations were tested in triplicates in three independent experiments.

[8] = system: B. subtilis HB5343; assay type: cell-based, Bacillus subtilis; conditions: psd::ery (PE-deficient), determined in LB
Description: as §2, §3

[9] = system: B. subtilis 168; assay type: cell-based, Bacillus subtilis; conditions: 168, 18 h
Description: as §2, §3

[10] = system: B. subtilis KS19 (ΔlytABCDEF); experiment: Cell lysis (optical density) in autolysin-deficient strain; assay type: cell-based, Bacillus subtilis; conditions: different concentrations, three replicate cultures
[11] = system: human cells; conditions: cited from earlier work
From the text: Antimicrobial peptides (AMPs) have been in the focus of research attention as a promising alternative for conventional antibiotics. The subclass of arginine- and tryptophan-rich peptides, with cationic charge and hydrophobic residues, provides the ideal structural prerequisite for interaction with the negatively charged bacterial membranes. To elucidate optimal structure-activity properties we screened a library of small synthetic peptides derived from the active motif of human antimicrobial peptide lactoferricin[3]. This analysis identified the cyclic hexapeptide cWFW (cyclo-RRRWFW) as ...

## N=C(N)NCCC[C@@H]1NC(=O)[C@H](CCCNC(=N)N)NC(=O)[C@H](Cc2c[nH]c3ccccc23)NC(=O)[C@H](Cc2ccccc2)NC(=O)[C@H](Cc2c[nH]c3ccccc23)NC(=O)[C@H](CCCNC(=N)N)NC1=O [cWFW, cyclo(RRRWFW)] (cyclo(FWRRRW))
[1]
  MIC: 8 µM (≈ 7.91 µg/mL)
[2]
  induction factor of protein AcsA: 3.7
  induction factor of protein CitZ: 3.5
  induction factor of protein ClpC: 5.4
  induction factor of protein ClpP: 4.8
  induction factor of protein DltA: 4.2
  induction factor of protein Dps: 5.2
  induction factor of protein FbaA: 2.9
  induction factor of protein FosB: 8.3
  induction factor of protein GroEL: 3.9
  induction factor of protein GsiB: 8.4
  induction factor of protein GtaB: 3.2
  induction factor of protein IspH: 19.0
  induction factor of protein LiaH: 16.6
  induction factor of protein LuxS: 3.4
  induction factor of protein MinD: 3.1
  induction factor of protein NadE: 11.0
  induction factor of protein NfrA: 5.7
  induction factor of protein OhrB: 4.4
  induction factor of protein PepF: 3.6
  induction factor of protein PspA: 9.5
  induction factor of protein PurH: 3.4
  induction factor of protein RacX: 12.0
  induction factor of protein SalA: 3.5
  induction factor of protein SodA: 3.0
  induction factor of protein SpoVG: 2.4
  induction factor of protein TpiA: 5.8
  induction factor of protein Tpx: 4.1
  induction factor of protein YceC: 9.9
  induction factor of protein YdaG: 5.6
  induction factor of protein YdbD: 19.4
  induction factor of protein YfhM: 5.8
  induction factor of protein YjdA: 3.4
  induction factor of protein YkaA: 4.6
  induction factor of protein YoxD: 7.1
  induction factor of protein YpuA: 4.0
  induction factor of protein YqiW: 2.4
  induction factor of protein YqkF: 7.7
  induction factor of protein YthP: 5.9
  induction factor of protein YvlB: 9.0
  induction factor of protein YvyD: 6.2
  induction factor of protein YwjI: 6.4
  induction factor of protein YwrO: 4.3
[3]
  change in cellular K+ content: accumulation of K^+
  leakage of cellular ions: no leakage of cellular ions was observed
[4]
  change of ATP levels: No significant changes
[5]; 6 μM, time-resolved laurdan GP
  time until reduction of membrane fluidity reaches a steady state: ≤ 2 min
[5]; 10 min incubation with increasing concentrations, high GP = low membrane fluidity, three replicates
  change of laurdan generalised polarisation (GP) in cells: clear concentration-dependent increase in laurdan generalised polarisation (GP)
[6]; growth-inhibitory concentrations (8 μM) and above, LB, 37 °C, three independent replicates
  membrane depolarisation (DiSC3(5) fluorescence): very low compared to that of the positive control KLA-1
[6]; growth-inhibitory concentrations (8–12 μM)
  time until membrane potential was restored almost to control levels: ≤ 10 min
[7]
  MIC: 6 µM (≈ 5.93 µg/mL)
[8]
  MIC: 6 µM (≈ 5.93 µg/mL)
[9]
  MIC: 6 µM (≈ 5.93 µg/mL)
[10]
  lysis triggered by cWFW in the absence of major autolysins LytCDEF: fully abolished
[11]
  toxicity towards human cells: not toxic towards human cells
